According to article PMC8699473, “An Easily Expandable Multi-Drug LC-MS Assay for the Simultaneous Quantification of 57 Oral Antitumor Drugs in Human Plasma” (Cancers, 2021):

Columns and labels:
[1] = Freeze-thaw stability in spiked pooled human plasma; assay type: physicochemical
[2] = Autosampler stability of ready for injection samples; assay type: physicochemical, human
[3] = Long-term stability in spiked pooled human plasma
[4] = Short-term stability in spiked pooled human plasma (bench-top, 4 °C, 56 °C)
[5] = set-up: method as in supplement references [1-55] as printed per drug; conditions: minimum steady-state blood plasma concentration after multiple dose administration; ref supplement references [1-55] per drug; cited from earlier work

## CCN1CCN(Cc2ccc(Nc3ncc(F)c(-c4cc(F)c5nc(C)n(C(C)C)c5c4)n3)nc2)CC1 [Abemaciclib]
[1]; validation standard 2xLLOV
  Freeze-Thaw Accuracy [%]: 96.4%
[1]; validation standard LLOV
  Freeze-Thaw Accuracy [%]: 90.4%
[1]; validation standard MOV
  Freeze-Thaw Accuracy [%]: 102.7%
[1]; validation standard ULOV
  Freeze-Thaw Accuracy [%]: 105.3%
[2]; validation standard 2xLLOV
  Autosampler (24h, 4°C) Accuracy [%]: 99.5%
  Autosampler (72h, 4°C) Accuracy [%]: 95.3%
[2]; validation standard LLOV
  Autosampler (24h, 4°C) Accuracy [%]: 89.1%
  Autosampler (72h, 4°C) Accuracy [%]: 86.1%
[2]; validation standard MOV
  Autosampler (24h, 4°C) Accuracy [%]: 100.7%
  Autosampler (72h, 4°C) Accuracy [%]: 96.7%
[2]; validation standard ULOV
  Autosampler (24h, 4°C) Accuracy [%]: 102.6%
  Autosampler (72h, 4°C) Accuracy [%]: 100.1%
[3]; validation standard 2xLLOV
  Long-term stability, 1 month, -20°C Accuracy [%]: 95.0%
  Long-term stability, 1 month, -80°C Accuracy [%]: 90.1%
  Long-term stability, 2 month, -20°C Accuracy [%]: 109.1%
  Long-term stability, 2 month, -80°C Accuracy [%]: 111.4%
  Long-term stability, 3 month, -20°C Accuracy [%]: 98.8%
  Long-term stability, 3 month, -80°C Accuracy [%]: 103.4%
  Long-term stability, 6 weeks, 4°C, without daylight Accuracy [%]: 92.0%
[3]; validation standard LLOV
  Long-term stability, 1 month, -20°C Accuracy [%]: 103.5%
  Long-term stability, 1 month, -80°C Accuracy [%]: 88.4%
  Long-term stability, 2 month, -20°C Accuracy [%]: 107.2%
  Long-term stability, 2 month, -80°C Accuracy [%]: 112.7%
  Long-term stability, 3 month, -20°C Accuracy [%]: 95.7%
  Long-term stability, 3 month, -80°C Accuracy [%]: 101.8%
  Long-term stability, 6 weeks, 4°C, without daylight Accuracy [%]: 86.3%
[3]; validation standard MOV
  Long-term stability, 1 month, -20°C Accuracy [%]: 103.0%
  Long-term stability, 1 month, -80°C Accuracy [%]: 96.2%
  Long-term stability, 2 month, -20°C Accuracy [%]: 107.3%
  Long-term stability, 2 month, -80°C Accuracy [%]: 105.5%
  Long-term stability, 3 month, -20°C Accuracy [%]: 104.4%
  Long-term stability, 3 month, -80°C Accuracy [%]: 101.8%
  Long-term stability, 6 weeks, 4°C, without daylight Accuracy [%]: 106.3%
[3]; validation standard ULOV
  Long-term stability, 1 month, -20°C Accuracy [%]: 102.4%
  Long-term stability, 1 month, -80°C Accuracy [%]: 97.8%
  Long-term stability, 2 month, -20°C Accuracy [%]: 106.0%
  Long-term stability, 2 month, -80°C Accuracy [%]: 105.1%
  Long-term stability, 3 month, -20°C Accuracy [%]: 103.5%
  Long-term stability, 3 month, -80°C Accuracy [%]: 99.9%
  Long-term stability, 6 weeks, 4°C, without daylight Accuracy [%]: 99.1%
[4]; validation standard 2xLLOV
  Short-time stability (1h, 56°C) Accuracy [%]: 27.9%
  Short-time stability (24h, 4°C, without daylight) Accuracy [%]: 102.9%
  Short-time stability (24h, RT, with daylight) Accuracy [%]: 88.7%
  Short-time stability (24h, RT, without daylight) Accuracy [%]: 87.4%
[4]; validation standard LLOV
  Short-time stability (1h, 56°C) Accuracy [%]: 27.4%
  Short-time stability (24h, 4°C, without daylight) Accuracy [%]: 93.7%
  Short-time stability (24h, RT, with daylight) Accuracy [%]: 90.1%
  Short-time stability (24h, RT, without daylight) Accuracy [%]: 88.2%
[4]; validation standard MOV
  Short-time stability (1h, 56°C) Accuracy [%]: 34.3%
  Short-time stability (24h, 4°C, without daylight) Accuracy [%]: 104.5%
  Short-time stability (24h, RT, with daylight) Accuracy [%]: 90.3%
  Short-time stability (24h, RT, without daylight) Accuracy [%]: 91.7%
[4]; validation standard ULOV
  Short-time stability (1h, 56°C) Accuracy [%]: 34.9%
  Short-time stability (24h, 4°C, without daylight) Accuracy [%]: 94.4%
  Short-time stability (24h, RT, with daylight) Accuracy [%]: 88.4%
  Short-time stability (24h, RT, without daylight) Accuracy [%]: 87.5%
[5]
  cmin: 181 ng/mL

## CCc1cc2c(cc1N1CCC(N3CCOCC3)CC1)C(C)(C)c1[nH]c3cc(C#N)ccc3c1C2=O [Alectinib]
[1]; validation standard 2xLLOV
  Freeze-Thaw Accuracy [%]: 100.0%
[1]; validation standard LLOV
  Freeze-Thaw Accuracy [%]: 91.2%
[1]; validation standard MOV
  Freeze-Thaw Accuracy [%]: 101.2%
[1]; validation standard ULOV
  Freeze-Thaw Accuracy [%]: 96.5%
[2]; validation standard 2xLLOV
  Autosampler (24h, 4°C) Accuracy [%]: 99.6%
  Autosampler (72h, 4°C) Accuracy [%]: 102.6%
[2]; validation standard LLOV
  Autosampler (24h, 4°C) Accuracy [%]: 91.8%
  Autosampler (72h, 4°C) Accuracy [%]: 93.7%
[2]; validation standard MOV
  Autosampler (24h, 4°C) Accuracy [%]: 104.1%
  Autosampler (72h, 4°C) Accuracy [%]: 104.1%
[2]; validation standard ULOV
  Autosampler (24h, 4°C) Accuracy [%]: 99.3%
  Autosampler (72h, 4°C) Accuracy [%]: 100.6%
[3]; validation standard 2xLLOV
  Long-term stability, 1 month, -20°C Accuracy [%]: 87.1%
  Long-term stability, 1 month, -80°C Accuracy [%]: 83.3%
  Long-term stability, 2 month, -20°C Accuracy [%]: 86.4%
  Long-term stability, 2 month, -80°C Accuracy [%]: 86.9%
  Long-term stability, 3 month, -20°C Accuracy [%]: 82.7%
  Long-term stability, 3 month, -80°C Accuracy [%]: 86.1%
  Long-term stability, 6 weeks, 4°C, without daylight Accuracy [%]: 81.2%
[3]; validation standard LLOV
  Long-term stability, 1 month, -20°C Accuracy [%]: 84.7%
  Long-term stability, 1 month, -80°C Accuracy [%]: 83.5%
  Long-term stability, 2 month, -20°C Accuracy [%]: 79.9%
  Long-term stability, 2 month, -80°C Accuracy [%]: 81.8%
  Long-term stability, 3 month, -20°C Accuracy [%]: 79.0%
  Long-term stability, 3 month, -80°C Accuracy [%]: 81.6%
  Long-term stability, 6 weeks, 4°C, without daylight Accuracy [%]: 75.7%
[3]; validation standard MOV
  Long-term stability, 1 month, -20°C Accuracy [%]: 85.8%
  Long-term stability, 1 month, -80°C Accuracy [%]: 83.9%
  Long-term stability, 2 month, -20°C Accuracy [%]: 89.5%
  Long-term stability, 2 month, -80°C Accuracy [%]: 89.3%
  Long-term stability, 3 month, -20°C Accuracy [%]: 88.4%
  Long-term stability, 3 month, -80°C Accuracy [%]: 86.7%
  Long-term stability, 6 weeks, 4°C, without daylight Accuracy [%]: 92.7%
[3]; validation standard ULOV
  Long-term stability, 1 month, -20°C Accuracy [%]: 85.2%
  Long-term stability, 1 month, -80°C Accuracy [%]: 81.7%
  Long-term stability, 2 month, -20°C Accuracy [%]: 88.3%
  Long-term stability, 2 month, -80°C Accuracy [%]: 88.1%
  Long-term stability, 3 month, -20°C Accuracy [%]: 84.7%
  Long-term stability, 3 month, -80°C Accuracy [%]: 84.8%
  Long-term stability, 6 weeks, 4°C, without daylight Accuracy [%]: 86.5%

## CNC(=O)c1ccc(N2C(=S)N(c3cnc(C#N)c(C(F)(F)F)c3)C(=O)C23CCC3)cc1F [Apalutamide]
[1]; validation standard 2xLLOV
  Freeze-Thaw Accuracy [%]: 95.6%
[1]; validation standard LLOV
  Freeze-Thaw Accuracy [%]: 93.8%
[1]; validation standard MOV
  Freeze-Thaw Accuracy [%]: 94.8%
[1]; validation standard ULOV
  Freeze-Thaw Accuracy [%]: 95.7%
[2]; validation standard 2xLLOV
  Autosampler (24h, 4°C) Accuracy [%]: 102.1%
  Autosampler (72h, 4°C) Accuracy [%]: 105.1%
[2]; validation standard LLOV
  Autosampler (24h, 4°C) Accuracy [%]: 97.2%
  Autosampler (72h, 4°C) Accuracy [%]: 102.8%
[2]; validation standard MOV
  Autosampler (24h, 4°C) Accuracy [%]: 106.8%
  Autosampler (72h, 4°C) Accuracy [%]: 106.0%
[2]; validation standard ULOV
  Autosampler (24h, 4°C) Accuracy [%]: 102.6%
  Autosampler (72h, 4°C) Accuracy [%]: 106.5%
[3]; validation standard 2xLLOV
  Long-term stability, 1 month, -20°C Accuracy [%]: 94.7%
  Long-term stability, 1 month, -80°C Accuracy [%]: 93.2%
  Long-term stability, 2 month, -20°C Accuracy [%]: 91.6%
  Long-term stability, 2 month, -80°C Accuracy [%]: 100.0%
  Long-term stability, 3 month, -20°C Accuracy [%]: 85.1%
  Long-term stability, 3 month, -80°C Accuracy [%]: 94.9%
  Long-term stability, 6 weeks, 4°C, without daylight Accuracy [%]: 73.5%
[3]; validation standard LLOV
  Long-term stability, 1 month, -20°C Accuracy [%]: 96.1%
  Long-term stability, 1 month, -80°C Accuracy [%]: 100.0%
  Long-term stability, 2 month, -20°C Accuracy [%]: 93.4%
  Long-term stability, 2 month, -80°C Accuracy [%]: 102.3%
  Long-term stability, 3 month, -20°C Accuracy [%]: 90.4%
  Long-term stability, 3 month, -80°C Accuracy [%]: 98.4%
  Long-term stability, 6 weeks, 4°C, without daylight Accuracy [%]: 78.5%
[3]; validation standard MOV
  Long-term stability, 1 month, -20°C Accuracy [%]: 89.4%
  Long-term stability, 1 month, -80°C Accuracy [%]: 91.1%
  Long-term stability, 2 month, -20°C Accuracy [%]: 90.2%
  Long-term stability, 2 month, -80°C Accuracy [%]: 97.6%
  Long-term stability, 3 month, -20°C Accuracy [%]: 86.8%
  Long-term stability, 3 month, -80°C Accuracy [%]: 89.7%
  Long-term stability, 6 weeks, 4°C, without daylight Accuracy [%]: 54.9%
[3]; validation standard ULOV
  Long-term stability, 1 month, -20°C Accuracy [%]: 90.6%
  Long-term stability, 1 month, -80°C Accuracy [%]: 90.2%
  Long-term stability, 2 month, -20°C Accuracy [%]: 88.9%
  Long-term stability, 2 month, -80°C Accuracy [%]: 95.9%
  Long-term stability, 3 month, -20°C Accuracy [%]: 78.8%
  Long-term stability, 3 month, -80°C Accuracy [%]: 90.1%
  Long-term stability, 6 weeks, 4°C, without daylight Accuracy [%]: 48.1%
[4]; validation standard 2xLLOV
  Short-time stability (1h, 56°C) Accuracy [%]: 46.5%
  Short-time stability (24h, 4°C, without daylight) Accuracy [%]: 93.0%
  Short-time stability (24h, RT, with daylight) Accuracy [%]: 76.8%
  Short-time stability (24h, RT, without daylight) Accuracy [%]: 80.8%
[4]; validation standard LLOV
  Short-time stability (1h, 56°C) Accuracy [%]: 37.6%
  Short-time stability (24h, 4°C, without daylight) Accuracy [%]: 96.9%
  Short-time stability (24h, RT, with daylight) Accuracy [%]: 72.0%
  Short-time stability (24h, RT, without daylight) Accuracy [%]: 75.7%
[4]; validation standard MOV
  Short-time stability (1h, 56°C) Accuracy [%]: 41.2%
  Short-time stability (24h, 4°C, without daylight) Accuracy [%]: 84.3%
  Short-time stability (24h, RT, with daylight) Accuracy [%]: 75.7%
  Short-time stability (24h, RT, without daylight) Accuracy [%]: 75.2%
[4]; validation standard ULOV
  Short-time stability (1h, 56°C) Accuracy [%]: 29.0%
  Short-time stability (24h, 4°C, without daylight) Accuracy [%]: 84.2%
  Short-time stability (24h, RT, with daylight) Accuracy [%]: 63.9%
  Short-time stability (24h, RT, without daylight) Accuracy [%]: 63.8%
[5]
  cmin: 3700 ng/mL
